Results taken from US8329674B2, “Film forming dental compositions and related methods” (3M Innovative Properties Company, priority 2007, dated 2012).
Converted amounts (≈) assume the structure as drawn. Counter-ions that a name gives are not always drawn.

What was measured:
Assay type in all cases: cell-based
[1] = system: Streptococcus mutans culture (ATCC 25175); experiment: Quantitative Biofilm Inhibition Test; settings: Streptococcus mutans, ATCC25175, 20 h, 1 weight percent compound; broth with 1.0 weight percent sucrose; approx. twenty hours at 37° C.; average OD at 550 nm as percentage of control (100%); read-out: OD Ratio
Method: Compounds of the dental compositions of the invention, and comparative compounds, were evaluated for biofilm inhibition activity. Composite dental restorative (available under the trade designation “FILTEK SUPREME” from 3M ESPE Dental Products, St. Paul, Minn.) was placed in a 15 millimeter by 1 millimeter stainless steel die. […] While the die containing the composite restorative was under compression, the composite was irradiated for two minutes using a Model ACE light source (available from SCHOTT North America, Inc., Auburn, N.Y.). The discs of cured composite restorative were then further cured using a Model UniXS light box (available from Heraeus Kulzer, Inc., Armonk, N.Y.) for 1.5 minutes.
The samples were incubated at 37° C. for approximately twenty hours, after which time the cured discs were removed from the broth and were gently rinsed with water. Each disc was placed in a separate test tube containing five milliliters of 1M aqueous sodium hydroxide solution, and each test tube was then sonicated for two minutes using a model SH1012-40-8 ultrasonic generator (manufactured by Branson Ultrasonics Corp., Danbury, Conn.) for two minutes to dislodge biofilm on the disc. The optical absorbance (optical density) of each aqueous sodium hydroxide solution was then measured at 550 nm using a Model ULTROSPEC III UV-visible spectrophotometer (manufactured by Pharmacia AB, Uppsala, Sweden). For each compound of the dental composition, five discs were separately incubated in broth and were evaluated separately to provide five optical density measurements. The average of the five optical density measurements was then calculated. […] The average optical density of the control or comparative samples was determined as described above. […] The ratio was considered to be proportional to the average amount of biofilm on the five cured discs, i.e., relatively low average optical density ratio was considered to be indicative of inhibition of biofilm formation. The ratio for the control was 100%.
(§1) The Quantitative Biofilm Inhibition Test was carried out using five compounds of the dental composition and eleven comparative compounds, each at a concentration of 1 weight percent. […] In addition, the Qualitative Biofilm Inhibition Test was carried out for each Example and Comparative Example, in which each disc was visually examined before it was placed in the tube containing the aqueous sodium hydroxide solution.

[2] = system: Streptococcus mutans culture (ATCC 25175); experiment: Qualitative Biofilm Inhibition Test; design: key: +: refers to a visual assessment that a compound inhibited biofilm formation; −: refers to a visual assessment that either a compound did not inhibit biofilm formation, or that bacteria grew in the culture broth; settings: 1 weight percent compound; visible biofilm on disc after incubation and rinse
Method: as §1, with “During the procedure for the Quantitative Biofilm Inhibition Test, each cured disc was visually examined after it was removed from the broth (and rinsed with water) and before it was placed in a test tube containing five milliliters of 1M aqueous sodium hydroxide solution. The presence or absence of visible biofilm on a disc was noted. The” for “The”

[3] = system: Streptococcus mutans culture (ATCC 25175); experiment: Biofilm Inhibition Test: concentration of compound to inhibit biofilm formation at varied sucrose; settings: tested at 50 or 150 millimolar
Method: Compounds of the dental compositions of the invention, and comparative compounds, were evaluated for biofilm inhibition activity. Composite dental restorative (available under the trade designation “FILTEK SUPREME” from 3M ESPE Dental Products, St. Paul, Minn.) was placed in a 15 millimeter by 1 millimeter stainless steel die. The open ends of the die were then covered with polyester film and the die was subjected to a pressure of 68.95 MPa using a hydraulic press. While the die containing the composite restorative was under compression, the composite was irradiated for two minutes using a Model ACE light source (available from SCHOTT North America, Inc., Auburn, N.Y.). The discs of cured composite restorative were then further cured using a Model UniXS light box (available from Heraeus Kulzer, Inc., Armonk, N.Y.) for 1.5 minutes.
The cured discs of composite restorative were then immersed in ten milliliters of Streptococcus mutans culture (ATCC 25175; 10^6 CFU/mL) prepared in brain heart infusion broth that contained 1.0 weight percent sucrose and 1 weight percent of a compound of the dental composition. The samples were incubated at 37° C. for approximately twenty hours, after which time the cured discs were removed from the broth and were gently rinsed with water. Each disc was placed in a separate test tube containing five milliliters of 1M aqueous sodium hydroxide solution, and each test tube was then sonicated for two minutes using a model SH1012-40-8 ultrasonic generator (manufactured by Branson Ultrasonics Corp., Danbury, Conn.) for two minutes to dislodge biofilm on the disc. The optical absorbance (optical density) of each aqueous sodium hydroxide solution was then measured at 550 nm using a Model ULTROSPEC III UV-visible spectrophotometer (manufactured by Pharmacia AB, Uppsala, Sweden). For each compound of the dental composition, five discs were separately incubated in broth and were evaluated separately to provide five optical density measurements. The average of the five optical density measurements was then calculated. […] The average optical density of the control or comparative samples was determined as described above. The ratio, expressed as a percentage, of the average optical density for each compound sample to the average optical density for a control sample was calculated by dividing the average optical density for each compound sample by the average optical density for a control sample and multiplying the result by one hundred. The ratio was considered to be proportional to the average amount of biofilm on the five cured discs, i.e., relatively low average optical density ratio was considered to be indicative of inhibition of biofilm formation. The ratio for the control was 100%.
During the procedure for the Quantitative Biofilm Inhibition Test, each cured disc was visually examined after it was removed from the broth (and rinsed with water) and before it was placed in a test tube containing five milliliters of 1M aqueous sodium hydroxide solution. The presence or absence of visible biofilm on a disc was noted.
The Biofilm Inhibition Test was carried out, using four compounds of the dental composition, in broth containing 1.0, 2.5, or 5.0 weight percent sucrose and the exemplary compounds of the dental composition at a concentration of either 50 millimolar or 150 millimolar. In Table 2, the millimolar concentration of compound that inhibited biofilm formation is given for each concentration of sucrose. An entry of “n/t” means that the compound was not tested in broth containing the corresponding concentration of sucrose.

Streptococcus mutans = experiment: Bacterial Kill Rate Test
Method: Compounds of the dental compositions of the invention were evaluated for extent of bacterial kill in culture. Overnight cultures of Streptococcus mutans in brain heart infusion broth (10^6 CFU/mL) was mixed with a 0.1 weight percent, 0.5 weight percent, or 1.0 weight percent aqueous solution of each compound of the dental composition. After a period of 2, 5, or 10 minutes, 1.0 mL of the mixture was transferred via pipette into a first tube containing 9.0 mL of Letheen broth to provide a 10^−1 dilution. The contents of the tube were mixed using a vortex mixer. A 1.0 mL aliquot of this sample was transferred via pipette into a second tube containing 9.0 mL of Letheen broth to provide a 10^−2 dilution. A 0.1 mL aliquot of each dilution was plated and spread in duplicate on sheep blood agar in Petri dishes, using a “hockey stick” applicator, to provide 10^−2 and 10^−3 dilutions, respectively, on each plate. The plates were incubated at 37° C. for a period of 48 to 72 hours, and then the colony forming units were counted. The CFU counts were compared and the log reduction in the counts were calculated. In Table 3, the bacteria count reduction (log reduction) is the difference between the log of the initial bacteria count and the log of the bacteria count after 2, 5, and 10 minutes.

[4] = system: Pseudomonas aeruginosa (strain ATCC 9027); experiment: Minimum Inhibitory Concentration (MIC) Test; settings: P. aeruginosa; compound emulsified in water with PLURONIC F68; 24 hours at 37° C.; none = no inhibitory activity noted
Method: (§2) The MIC Test was carried out using successively lower concentrations of compounds. Sterile tryptic soy broth (50 microliters; TSB, available from BD Dfico, Becton, Dickinson and Company, Franklin Lakes, N.J.) was deposited into each well of a sterile polystyrene 96-well microtitcr plate. Into each well in the first (leftmost) column of the plate, there was then deposited a 50 microliter aliquot (of known concentration) of a compound (i.e., a compound of Formula I, or a pharmaceutically acceptable salt thereof, or comparative compound). A 50 microliter aliquot of the mixture in the first (leftmost) well in the first row of the plate was transferred to the second well in the first row. A 50 microliter aliquot of the mixture in the second well in the first row was then transferred to the third well in the first row. The compound was successively diluted (1:1 dilution at each step) by transferring a 50 microliter aliquot from one well into the next well, across the row of the plate. This procedure was repeated for each row of the plate. Then, an overnight culture of Streptococcus mutans (strain ATCC 25175) was diluted 1:100 into sterile tryptic soy broth. A 50 microliter aliquot of the diluted S. mutans culture (10^5 CFU) was deposited into each well of the microtiter plate. The plate was then incubated at 37° C. for 24 hours in a sealed humidified chamber. The plate was then visually inspected to determine the lowest concentration of compound at which no bacterial growth was visible. This value was considered to be the minimum inhibitory concentration (MIC) for the compound. The test was repeated using Staphylococcus aureus (strain ATCC 6538) and Pseudomonas aeruginosa (strain ATCC 9027) in place of S. mutans.
(§3) A sample of each of N-dodecanoyl-D-glucosamine, N-tetradecanoyl-D-glucosamine, and N-hexadecanoyl-D-glucosamine (0.100 g each) was emulsified in water (10 g) using a nonionic surfactant (0.9 g; PLURONIC F68, available from BASF Corp., Mount Olive, N.J.). A control sample was made by combining the nonionic surfactant (0.9 g) and water (10 g). Each of the four samples was evaluated using the Minimum Inhibitory Concentration (MIC) Test described above with S. mutans, S. aureus, and P. aeruginosa. In Table 5, “F68” refers to the nonionic surfactant used in the Comparative Examples, and “none” means that no inhibitory activity was noted.

[5] = system: Staphylococcus aureus (strain ATCC 6538); experiment: Minimum Inhibitory Concentration (MIC) Test; settings: S. aureus; compound emulsified in water with PLURONIC F68; 24 hours at 37° C.; none = no inhibitory activity noted
Method: as §2, §3

[6] = system: Streptococcus mutans (strain ATCC 25175); experiment: Minimum Inhibitory Concentration (MIC) Test; settings: ATCC25175, S. mutans, compound emulsified in water with PLURONIC F68, 24 hours at 37° C., none = no inhibitory activity noted
Method: as §2, §3

Row | SMILES | activity at 1 % w/w [1] [%] | Visual Assessment [2] | Concentration of Compound to Inhibit Biofilm Formation ([3]; 1 wt% Sucrose) [mM] | Bacteria Count Reduction (log reduction) (Streptococcus mutans; 0.1 wt % compound, 2 min.) | Bacteria Count Reduction (log reduction) (Streptococcus mutans; 0.1 wt % compound, 5 min.) | Bacteria Count Reduction (log reduction) (Streptococcus mutans; 0.1 wt % compound, 10 min.) | Bacteria Count Reduction (log reduction) (Streptococcus mutans; 0.5 wt % compound, 2 min.) | Bacteria Count Reduction (log reduction) (Streptococcus mutans; 0.5 wt % compound, 5 min.) | Bacteria Count Reduction (log reduction) (Streptococcus mutans; 0.5 wt % compound, 10 min.) | Bacteria Count Reduction (log reduction) (Streptococcus mutans; 1.0 wt % compound, 2 min.) | Bacteria Count Reduction (log reduction) (Streptococcus mutans; 1.0 wt % compound, 5 min.) | Bacteria Count Reduction (log reduction) (Streptococcus mutans; 1.0 wt % compound, 10 min.) | Concentration of Compound to Inhibit Biofilm Formation ([3]; 2.5 wt% Sucrose) [mM] | Concentration of Compound to Inhibit Biofilm Formation ([3]; 5 wt% Sucrose) [mM] | MIC [4] | MIC [5] | MIC [6] [µg/mL]
1 | N[C@H]1C(O)O[C@H](COP(=O)(O)O)[C@@H](O)[C@@H]1O (stereo partly drawn) [Glucosamine-6-Phosphate, D-glucosamine-6-phosphate] | 2 | + | 50 | 0.99 | 0.88 | 1.06 | 0.95 | 1.11 | 1.23 | 1.12 | 1.41 | 2.09 |  |  |  |  | 
2 | N[C@@H]1C(O)O[C@H](CO)[C@@H](O)[C@@H]1O (stereo partly drawn) [Mannosamine HCl, D-mannosamine] | 0 | + | 50 | 1.01 | 0.82 | 0.95 | 0.96 | 0.98 | 1.00 | 0.96 | 1.09 | 0.99 | 50 | 50 |  |  | 
3 | CCCCCCCCCCCC(=O)N[C@H]1C(O)O[C@H](CO)[C@@H](O)[C@@H]1O (stereo partly drawn) [N-dodecanoyl-D-glucosamine] |  |  |  |  |  |  |  |  |  |  |  |  |  |  | None | None | 78 (≈ 216 µM)
4 | CCCCCCCCCCCCCCCC(=O)N[C@H]1C(O)O[C@H](CO)[C@@H](O)[C@@H]1O (stereo partly drawn) [N-hexadecanoyl-D-glucosamine] |  |  |  |  |  |  |  |  |  |  |  |  |  |  | None | None | 39 (≈ 93.4 µM)
5 | CCCCCCCCCCCCCC(=O)N[C@H]1C(O)O[C@H](CO)[C@@H](O)[C@@H]1O (stereo partly drawn) [N-tetradecanoyl-D-glucosamine] |  |  |  |  |  |  |  |  |  |  |  |  |  |  | None | None | 78 (≈ 200 µM)
